{
  "source": "patent US6503938B1",
  "about": "“2-phenylindoles as antiestrogenic pharmaceutical agents” (Schering Aktiengesellschaft, priority 1994, dated 2003)",
  "key": {"[1]": {"biological_target": "T1, estrogen receptor consisting of calf uterus cytosol (Bos taurus, UniProt P49884)", "T1 construct": "for the estrogen receptor consisting of calf uteri; from tissue; host or cells: calf uterus", "T1 sequence (P49884 1-596)": "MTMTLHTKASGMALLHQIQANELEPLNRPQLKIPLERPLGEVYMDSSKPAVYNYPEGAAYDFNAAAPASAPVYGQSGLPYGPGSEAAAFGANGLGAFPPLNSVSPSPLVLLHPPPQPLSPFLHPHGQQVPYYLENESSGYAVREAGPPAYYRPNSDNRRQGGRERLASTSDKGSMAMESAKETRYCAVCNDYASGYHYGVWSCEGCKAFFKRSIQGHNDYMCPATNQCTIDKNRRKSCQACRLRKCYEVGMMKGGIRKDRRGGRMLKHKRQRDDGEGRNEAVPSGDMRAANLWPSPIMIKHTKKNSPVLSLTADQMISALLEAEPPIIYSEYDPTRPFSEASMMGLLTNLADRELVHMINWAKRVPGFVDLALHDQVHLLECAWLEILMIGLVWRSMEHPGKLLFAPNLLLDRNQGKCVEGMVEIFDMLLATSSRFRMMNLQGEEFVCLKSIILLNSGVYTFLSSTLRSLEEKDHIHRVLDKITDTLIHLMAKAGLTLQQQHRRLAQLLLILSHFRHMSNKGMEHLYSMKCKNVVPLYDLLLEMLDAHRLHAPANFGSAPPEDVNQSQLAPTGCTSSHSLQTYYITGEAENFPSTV", "assay": "Relative binding affinity (RBA) for the estrogen receptor, displacement of 3H-17β-estradiol", "settings": "RBA(17β-estradiol) = 100"}, "[2]": {"tested_on": "uterus of infantile mice", "assay": "Uterus weight test in infantile mice (estrogenic and antiestrogenic action)", "type": "in vivo", "settings": "for estrogenic action on the uterus of infantile mice: s.c. in olive oil on three successive days, uterus dry weight/body weight 24 hours after the last injection", "method": "Compound no. […] For compounds nos. […] The dose/animal was administered s.c., dissolved in olive oil, on three successive days. The dry weight of the uterus [mg]/body weight [g]×100 was determined 24 hours after the last injection. This test is described in detail in Cancer Treatment Reviews, 1984, 11, 147 and J. Med. Chem., 1984, 27, 1439."}, "[3]": {"tested_on": "hormone-sensitive human MCF-7 breast cancer cells", "assay": "Cytostatic activity on hormone-sensitive human MCF-7 breast cancer cells (T/C of optical densities)", "type": "cell-based", "settings": "mean of 16 determinations ± SD"}, "[4]": {"settings": "substance concentration 1 · 10^−6 M in the incubation medium"}, "[5]": {"settings": "substance concentration 1 · 10^−7 M in the incubation medium"}, "[6]": {"settings": "substance concentration 1 · 10^−8 M in the incubation medium"}, "[7]": {"settings": "substance concentration 1 · 10^−9 M in the incubation medium"}},
  "data": [
    {"molecule": "Cc1c(-c2ccc(O)cc2)n(CCCCCCCCSc2ccccn2)c2ccc(O)cc12", "note": "[Compound 6, 5-hydroxy-2-(4-hydroxyphenyl)-3-methyl-1-[8-(2-pyridinylthio)-octyl]-indole]", "values": [
      {"measurement": "melting point", "value": "56 to 60", "unit": "°C"},
      {"measurement": "RBA(*) relative binding affinity for the estrogen receptor", "setting": "[1]", "value": 1.4}
    ]},
    {"molecule": "CCCCCS(=O)(=O)CCCCCCCCCCn1c(-c2ccc(O)cc2)c(C)c2cc(O)ccc21", "note": "[Compound 3, 5-Hydroxy-2-(4-hydroxyphenyl)-3-methyl-1-[10-(pentylsulfonyl)-decyl]-indole]", "values": [
      {"measurement": "action of estrogen (0.4 μg/animal) on the uterus (antiestrogenic effect)", "setting": "[2]; 10 mg/kg s.c., three successive days, with estrogen 0.4 μg/animal", "value": "completely cancelled out"},
      {"measurement": "dry weight of the uterus compared to control level", "setting": "[2]; dose of 35 mg/kg s.c., three successive days", "value": "still lies below the control level"},
      {"measurement": "estrogenic action on the uterus of infantile mice", "setting": "[2]", "value": "does not show any estrogenic action"}
    ]},
    {"molecule": "CCCS(=O)(=O)CCCCCCCCCCCCn1c(-c2ccc(O)cc2)c(C)c2cc(O)ccc21", "note": "[Compound 4, 5-hydroxy-2-(4-hydroxyphenyl)-3-methyl-1-[12-(propylsulfonyl)-dodecyl]-indole]", "values": [
      {"measurement": "RBA(*) relative binding affinity for the estrogen receptor", "setting": "[1]", "value": 1.9}
    ]},
    {"molecule": "CCC[S+]([O-])CCCCCCCCCCCCn1c(-c2ccc(O)cc2)c(C)c2cc(O)ccc21", "note": "(stereo not shown) [Compound 5, 5-hydroxy-2-(4-hydroxyphenyl)-3-methyl-1-[12-(propylsulfinyl)-dodecyl]-indole]", "values": [
      {"measurement": "RBA(*) relative binding affinity for the estrogen receptor", "setting": "[1]", "value": 2.9}
    ]},
    {"molecule": "CCCS(=O)(=O)N(C)CCCCCCCCCCCn1c(-c2ccc(O)cc2)c(C)c2cc(O)ccc21", "note": "[Compound 8, 5-hydroxy-2-(4-hydroxyphenyl)-3-methyl-1-[11-(N-methyl-propylsulfonamido)-undecyl]-indole]", "values": [
      {"measurement": "RBA(*) relative binding affinity for the estrogen receptor", "setting": "[1]", "value": 1.8}
    ]},
    {"molecule": "CCCCCSCCCCCCCCCCn1c(-c2ccc(O)cc2)c(C)c2cc(O)ccc21", "note": "[Compound 1, 5-Hydroxy-2-(4-hydroxyphenyl)-3-methyl-1-[10-(pentylthio)-decyl]-indole]", "values": [
      {"measurement": "RBA(*) relative binding affinity for the estrogen receptor", "setting": "[1]", "value": 0.3}
    ]},
    {"molecule": "CCCCN(C)S(=O)(=O)CCCCCCCCCCn1c(-c2ccc(O)cc2)c(C)c2cc(O)ccc21", "note": "[Compound 10, 1-[10-(n-butyl-methylsulfamoyl)-decyl]-5-hydroxy-(4-hydroxyphenyl)-3-methylindole]", "values": [
      {"measurement": "T/C [%]", "setting": "[3]; [4]", "value": "−12.3 ± 6.3", "unit": "%"},
      {"measurement": "T/C [%]", "setting": "[3]; [5]", "value": "−13.4 ± 4.5", "unit": "%"},
      {"measurement": "T/C [%]", "setting": "[3]; [6]", "value": "0.5 ± 6.3", "unit": "%"},
      {"measurement": "T/C [%]", "setting": "[3]; [7]", "value": "86.3 ± 18.0", "unit": "%"},
      {"measurement": "RBA(*) relative binding affinity for the estrogen receptor", "setting": "[1]", "value": 2.6}
    ]},
    {"molecule": "CCCCCSCCCCCCCCCCn1c2c(c3cc(O)ccc31)CCc1cc(O)ccc1-2", "note": "[Compound 16, 6,11-dihydro-3,8-dihydroxy-5H-1-[10-(pentylthio)-decyl]benzo[a]carbazole]", "values": [
      {"measurement": "T/C [%]", "setting": "[3]; substance concentration 1 · 10^−5 M in the incubation medium", "value": "−38.6 ±13.9", "unit": "%"},
      {"measurement": "T/C [%]", "setting": "[3]; [4]", "value": "−7.8 ± 8.9", "unit": "%"},
      {"measurement": "T/C [%]", "setting": "[3]; [5]", "value": "−18.5 ± 15.4", "unit": "%"},
      {"measurement": "T/C [%]", "setting": "[3]; substance concentration 6 · 10^−6 M in the incubation medium", "value": "−31.1 ± 10.0", "unit": "%"},
      {"measurement": "RBA(*) relative binding affinity for the estrogen receptor", "setting": "[1]", "value": 0.13}
    ]},
    {"molecule": "CCCCN(C)C(=O)CCCSCCCCCCn1c(-c2ccc(O)cc2)c(C)c2cc(O)ccc21", "note": "[Compound 13, 1-{6-[3′-(n-butyl-methylcarbamoyl)-propylthio]-hexyl}-5-hydroxy-2-(4-hydroxyphenyl)-3-methylindole]", "values": [
      {"measurement": "T/C [%]", "setting": "[3]; [4]", "value": "15.8 ± 6.9", "unit": "%"},
      {"measurement": "T/C [%]", "setting": "[3]; [5]", "value": "40.2 ± 11.4", "unit": "%"},
      {"measurement": "T/C [%]", "setting": "[3]; [6]", "value": "92.9 ± 15.2", "unit": "%"},
      {"measurement": "T/C [%]", "setting": "[3]; [7]", "value": "85.6 ± 16.0", "unit": "%"},
      {"measurement": "RBA(*) relative binding affinity for the estrogen receptor", "setting": "[1]", "value": 1.3}
    ]},
    {"molecule": "COc1ccc(-c2c(C)c3cc(OC)ccc3n2CCCCCCCCSc2ccccn2)cc1", "note": "[Example 6, 5-Methoxy-2-(4-methoxyphenyl)-3-methyl-1-[8-(2-pyridinylthio)-octyl]-indole]", "values": [
      {"measurement": "melting point", "value": "75 to 77", "unit": "°C"}
    ]},
    {"molecule": "5-hydroxy-2-(4-hydroxyphenyl)-3-methyl-1-[12-[2-(N-methyl-imidazolyl)thio]-decyl]-indole [Compound 7]", "values": [
      {"measurement": "T/C [%]", "setting": "[3]; [4]", "value": "36.8 ± 8.7", "unit": "%"},
      {"measurement": "T/C [%]", "setting": "[3]; [5]", "value": "60.4 ± 9.1", "unit": "%"},
      {"measurement": "T/C [%]", "setting": "[3]; [6]", "value": "83.8 ± 11.3", "unit": "%"},
      {"measurement": "RBA(*) relative binding affinity for the estrogen receptor", "setting": "[1]", "value": 2.0}
    ]},
    {"molecule": "Cc1c(-c2ccc(O)cc2)n(CCCCCCCCCCSCC(=O)N(C)C(C)C)c2ccc(O)cc12", "note": "[Compound 14, 5-hydroxy-2-(4-hydroxyphenyl)-3-methyl-1-[10-[(methyl-iso-propylcarbamoyl)-methylthio]-decyl]-indole]", "values": [
      {"measurement": "RBA(*) relative binding affinity for the estrogen receptor", "setting": "[1]", "value": 1.7}
    ]},
    {"molecule": "Cc1c(-c2ccc(O)cc2)n(CCCCCCCCCCCN(C)S(=O)(=O)Cc2ccccc2)c2ccc(O)cc12", "note": "[Compound 9, 5-hydroxy-2-(4-hydroxyphenyl)-3-methyl-1-[11-(N-methyl-phenylmethanesulfonamido)-undecyl]-indole]", "values": [
      {"measurement": "RBA(*) relative binding affinity for the estrogen receptor", "setting": "[1]", "value": 1.0}
    ]},
    {"molecule": "Cc1c(-c2ccc(O)cc2)n(CCCCCCCCCS(=O)(=O)CCCC(F)(F)C(F)(F)F)c2ccc(O)cc12", "note": "[Compound 12, 5-hydroxy-2-(4-hydroxyphenyl)-3-methyl-1-[9-(4,4,5,5,5-pentafluoropentylsulfonyl)-nonyl]-indole]", "values": [
      {"measurement": "RBA(*) relative binding affinity for the estrogen receptor", "setting": "[1]", "value": 1.0}
    ]},
    {"molecule": "Cc1c(-c2ccc(O)cc2)n(CCCCCCCCC[S+]([O-])CCCC(F)(F)C(F)(F)F)c2ccc(O)cc12", "note": "(stereo not shown) [Compound 11, 5-hydroxy-2-(4-hydroxyphenyl)-3-methyl-1-[9-(4,4,5,5,5-pentafluoropentylsulfinyl)-nonyl]-indole]", "values": [
      {"measurement": "estrogenic action on the uterus of infantile mice", "setting": "[2]", "value": "virtually identical results"},
      {"measurement": "RBA(*) relative binding affinity for the estrogen receptor", "setting": "[1]", "value": 2.4}
    ]},
    {"molecule": "CCCCCS(=O)(=O)CCCCOc1ccc(Cn2c(-c3ccc(O)cc3)c(C)c3cc(O)ccc32)cc1", "note": "[Compound 15, 5-hydroxy-2-(4-hydroxyphenyl)-3-methyl-1-[4-[4-(pentylsulfonyl)butoxy]-benzyl]-indole]", "values": [
      {"measurement": "RBA(*) relative binding affinity for the estrogen receptor", "setting": "[1]", "value": 9.5}
    ]},
    {"molecule": "CCCCC[S+]([O-])CCCCCCCCCCn1c(-c2ccc(O)cc2)c(C)c2cc(O)ccc21", "note": "(stereo not shown) [Compound 2, 5-Hydroxy-2-(4-hydroxyphenyl)-3-methyl-1-[10-(pentylsulfinyl)-decyl]-indole]", "values": [
      {"measurement": "RBA(*) relative binding affinity for the estrogen receptor", "setting": "[1]", "value": 3.4}
    ]},
    {"molecule": "CNC(=O)CCCCCCCCCCn1c(-c2ccc(OC)cc2)c(C)c2cc(OC)ccc21", "note": "[Example 7, 5-Methoxy-2-(4-methoxyphenyl)-3-methyl-1-[10-(N-methylcarbamoyl)-decyl]-indole]", "values": [
      {"measurement": "melting point", "value": 88, "unit": "°C"}
    ]}
  ]
}
